We go through five compounds from DBAASP.

By MIC is commonly meant the smallest concentration in the dilution series that meets the test's criterion for growth inhibition. Low values mean inhibition by little substance, high ones a need for much substance.

Common to all, as to assay: ≥ marks a high value that may be exact or a test limit, other limits are often not marked, values filed in µg/mL are converted to µM
Experiment [1] deals with Staphylococcus epidermidis KCTC 3096.
The test system of experiment [2] is Candida albicans KCTC 7270.
Experiment [3] deals with Pseudomonas aeruginosa KCTC 1637.
The test system of experiment [4] is Staphylococcus aureus PBEL.
Experiment [5] relates to Escherichia coli CCARM 1238.
Experiment [6] deals with Staphylococcus aureus CCARM 3089.
In experiment [7] the test system is Bacillus subtilis KCTC 1998.
In experiment [8] the test system is Staphylococcus epidermidis ATCC 12228.
In experiment [9] the test system is Salmonella typhimurium CCARM 8009.
Experiment [10] concerns Listeria monocytogenes ATCC 19115.
In experiment [11] the test system is Aspergillus flavus KCTC 6905.
In experiment [12] the test system is Aspergillus parasiticus KCTC 6598.
Experiment [13] deals with Bacillus subtilis KCTC 1918.
In experiment [14] the test system is Salmonella typhimurium CCARM 8013.
Experiment [15] relates to Pseudomonas aeruginosa ATCC 15692.
Experiment [16] deals with Trichosporon beigelii KCTC 7707.
Experiment [17] has as its system Aspergillus awamori KCTC 6915.
The test system of experiment [18] is Escherichia coli CCARM 1229.
In experiment [19] the test system is Pseudomonas aeruginosa 3547.
In experiment [20] the test system is Staphylococcus aureus CCARM 3114.
Experiment [21] has as its system Proteus vulgaris KCTC 2433.
Experiment [22] relates to Aspergillus fumigatus KCTC 6145.
The subject of experiment [23] is Listeria monocytogenes KCTC 3710.
Experiment [24] deals with Salmonella typhimurium KCTC 1926.
Experiment [25] deals with Pseudomonas aeruginosa 4007.
Experiment [26] deals with Nocardia asteroides.
Experiment [27] relates to Staphylococcus aureus ATCC 25923.
Experiment [28] has as its system Enterococcus faecium 091299.
Experiment [29] has as its system Enterococcus faecalis 981.
For experiment [30], the system named is Psychrobacter faecalis X29.
In experiment [31] the test system is Enterobacter cloacae CGMCC 1.57.
Experiment [32] deals with Candida glabrata 090902.
The test system of experiment [33] is Escherichia coli 363.
Experiment [34] relates to Salmonella typhimurium.
Experiment [35] relates to Klebsiella pneumoniae.
In experiment [36] the test system is Staphylococcus aureus.
For experiment [37], the system named is Fusarium oxysporum.
For experiment [38], the system named is Botrytis cinerea.
In experiment [39] the test system is Vibrio penaeicida.
Experiment [40] deals with Aerococcus viridans.
For experiment [41], the system named is Micrococcus luteus.
Experiment [42] concerns Vibrio alginolyticus.
The subject of experiment [43] is Enterobacter cloacae.
Experiment [44] relates to Penicillium crustosum.
The test system of experiment [45] is Vibrio anguillarum.
For experiment [46], the system named is Bacillus megaterium.
In experiment [47] the test system is Vibrio harveyi.
Experiment [48] concerns Pectobacterium carotovorum.
Experiment [49] relates to Staphylococcus epidermidis.
In experiment [50] the test system is Staphylococcus aureus A170.
For experiment [51], the system named is Candida albicans ATCC 37092.
The subject of experiment [52] is Escherichia coli ATCC 25922.
Experiment [53] has as its system Staphylococcus aureus ATCC 29213.

Each structure is given as a SMILES string. In brackets after ≈: the same amount, converted by molar mass.

On to `CC[C@H](C)[C@H](NC(=O)[C@H](CCCCN)NC(=O)[C@H](CCCCN)NC(=O)[C@H](C)NC(=O)[C@H](CC(C)C)NC(=O)[C@H](CCCCN)NC(=O)[C@H](CCCCN)NC(=O)[C@H](CC(C)C)NC(=O)[C@H](CCCN=C(N)N)NC(=O)[C@H](CCCCN)NC(=O)[C@H](C)N)C(=O)N[C@@H](Cc1c[nH]c2ccccc12)C(=O)N[C@@H](CCCCN)C(=O)N[C@@H](Cc1c[nH]c2ccccc12)C(=O)N[C@@H](CCCCN)C(N)=O` [AKRLKKLAKKIWKWK], for which the MIC was 2.83 µM (≈ 5.44 µg/mL) in experiment [1]; 8 µM (≈ 15.4 µg/mL) in experiment [2]; 2 µM (≈ 3.85 µg/mL) in experiment [3]; 1 µM (≈ 1.92 µg/mL) in [4]; 2 µM (≈ 3.85 µg/mL) in experiment [5]; 2 µM (≈ 3.85 µg/mL) in experiment [6]. Also, the MIC in [7] was determined as 2 µM (≈ 3.85 µg/mL); in [8] it was 2.83 µM (≈ 5.44 µg/mL); in experiment [9], 2 µM (≈ 3.85 µg/mL); in experiment [10] it was 2 µM (≈ 3.85 µg/mL); in experiment [11] it was 8 µM (≈ 15.4 µg/mL); in [12] it was 8 µM (≈ 15.4 µg/mL). In addition, the MIC in [13] was determined as 2 µM (≈ 3.85 µg/mL); in [14], 1 µM (≈ 1.92 µg/mL); in experiment [15], 2 µM (≈ 3.85 µg/mL); in experiment [16], 16 µM (≈ 30.8 µg/mL); in experiment [17], 8 µM (≈ 15.4 µg/mL); in experiment [18] it was 1.41 µM (≈ 2.72 µg/mL). Besides, the MIC is 2.83 µM (≈ 5.44 µg/mL) in experiment [19]; 4 µM (≈ 7.7 µg/mL) in experiment [20]; 2.83 µM (≈ 5.44 µg/mL) in experiment [21]; 4 µM (≈ 7.7 µg/mL) in experiment [22]; 2 µM (≈ 3.85 µg/mL) in experiment [23]; 1.41 µM (≈ 2.72 µg/mL) in experiment [24]. The MIC in [25] is 1 µM (≈ 1.92 µg/mL).
As for `CC[C@H](C)[C@H](NC(=O)[C@H](C)NC(=O)[C@@H](NC(=O)[C@@H]1CCCN1C(=O)[C@H](CC(C)C)NC(=O)[C@@H](NC(=O)[C@H](Cc1cnc[nH]1)NC(=O)[C@H](C)NC(=O)[C@H](C)NC(=O)[C@@H](NC(=O)[C@H](CCCCN)NC(=O)[C@H](CC(C)C)NC(=O)[C@@H](NC(=O)[C@H](C)NC(=O)[C@@H]1CCCN1C(=O)[C@H](CC(C)C)NC(=O)[C@@H](N)Cc1ccccc1)C(C)C)C(C)C)[C@@H](C)CC)[C@@H](C)O)C(=O)N[C@H]1CSSC[C@@H](C(=O)O)NC(=O)[C@H](CCCN=C(N)N)NC(=O)[C@H](CCCN=C(N)N)NC(=O)[C@H](CO)NC(=O)[C@H]([C@@H](C)CC)NC(=O)[C@H](C)NC1=O` [FLPAVLKVAAHILPTAICAISRRC], the MIC in experiment [26] was 3.1 µM (≈ 7.94 µg/mL); in experiment [27] it was 3.1 µM (≈ 7.94 µg/mL); in [28] it was at least 50 µM; in experiment [29], 3.1 µM (≈ 7.94 µg/mL); in experiment [30] it was 25 µM (≈ 64.1 µg/mL); in [31] it was at least 100 µM. In experiment [32], this compound displayed an MIC of 12.5 µM (≈ 32 µg/mL).
Regarding `CSCC[C@H](NC(=O)[C@H](CCCN=C(N)N)NC(=O)CNC(=O)[C@H](CCCCN)NC(=O)[C@H](Cc1ccc(O)cc1)NC(=O)[C@H](Cc1ccc(O)cc1)NC(=O)[C@@H](NC(=O)[C@H](CCC(N)=O)NC(=O)[C@H](Cc1ccccc1)NC(=O)[C@H](CCCN=C(N)N)NC(=O)[C@H](CCCCN)NC(=O)[C@H](CC(C)C)NC(=O)[C@H](Cc1ccc(O)cc1)NC(=O)[C@@H]1CCCN1C(=O)[C@@H](N)CCCCN)C(C)C)C(=O)N[C@@H](Cc1c[nH]c2ccccc12)C(=O)N[C@@H](CS)C(=O)O` [KPYLKRFQVYYKGRMWC], the MIC in experiment [33] amounted to 25 µM (≈ 56.7 µg/mL); in experiment [34], 25 µM (≈ 56.7 µg/mL); in experiment [35] it was 25 µM (≈ 56.7 µg/mL); in [36], 50 µM (≈ 113 µg/mL); in experiment [37], 12.5 µM (≈ 28.3 µg/mL); in experiment [38], 12.5 µM (≈ 28.3 µg/mL). The MIC in experiment [39] is at least 100 µM; in experiment [40], 6.25 µM (≈ 14.2 µg/mL); in experiment [41], 6.25 µM (≈ 14.2 µg/mL); in experiment [42] it was 25 µM (≈ 56.7 µg/mL); in [43] it was 25 µM (≈ 56.7 µg/mL); in experiment [44], 25 µM (≈ 56.7 µg/mL). Further, the MIC was at least 100 µM in experiment [45], 3.12 µM (≈ 7.07 µg/mL) in experiment [46], at least 50 µM in experiment [47] and at least 50 µM in experiment [48].
In the case of `CC[C@H](C)[C@H](NC(=O)[C@@H](NC(=O)[C@@H](NC(=O)[C@@H]1CCCN1C(=O)[C@H](CC(C)C)NC(=O)[C@@H](N)CC(C)C)[C@@H](C)CC)C(C)C)C(=O)N[C@@H](CC(N)=O)C(=O)N[C@@H](CC(C)C)C(=O)N[C@@H](CC(C)C)C(=O)N[C@@H](CCCCN)C(=O)N[C@@H](CO)C(=O)N[C@@H](CC(C)C)C(=O)N[C@@H](CC(C)C)C(=O)O` [LLPIVINLLKSLL], the MIC in [49] was determined as 13.8 µM (≈ 20 µg/mL); in experiment [50] it was 6.9 µM (≈ 10 µg/mL).
`CC(C)C[C@H](NC(=O)[C@@H]1CCCN1C(=O)[C@H](CCCN=C(N)N)NC(=O)[C@@H]1CCCN1C(=O)[C@H](CCCN=C(N)N)NC(=O)[C@@H]1CCCN1)C(=O)N1CCC[C@H]1C(=O)N[C@@H](Cc1ccccc1)C(=O)N1CCC[C@H]1C(=O)N[C@@H](CCCN=C(N)N)C(=O)N1CCC[C@H]1C(=O)NCC(=O)O` [PRPRPLPFPRPG]: the minimum inhibitory concentration (MIC) was at least 500 µM in [51], over 500 µM in [52] and over 500 µM in [53].
